Values quoted from earlier work, collected in patent publication US8920373B2, “Reduced volume formulation of glatiramer acetate and methods of administration” (Teva Pharmaceutical Industries, Ltd., priority 2009, dated 2014).

System: RRMS subjects

Patients reporting Immediate Post-Injection Reaction (IPIR) (human, in vivo): 31%
Proportion of patients reporting injection-site reactions at least once (human, in vivo): 70%
Substance: glatiramer acetate
Reduction of relapse rate versus placebo (largest controlled study): 32%
Relapse rate (largest controlled study): 1.34
Median cumulative number of Gd-enhancing lesions (over 9 months of treatment): 11 lesions
